{"source": "patent US20010051616A1", "about": "“METHOD OF LESSENING THE RISK OF VERTEBRAL FRACTURES” (priority 1995, published 2001)", "key": {"[1]": {"tested_on": "decrease in stature in osteoporotic post-menopausal women", "settings": "over three years", "from_the_text": "(§1) Postmenopausal women having a “low” lumbar spinal bone mineral density, defined as either a bone mineral density (BMD) of less than or equal to 0.92 g/cm^2 (+ or −0.02 g/cm^2) as measured by Lunar DPX method, or less than or equal to 0.80 g/cm^2 (+ or −0.02 g/cm^2) as measured by the Hologic QDR method are considered to have osteoporosis. This definition corresponds to a BMD of approximately two and one-half standard deviations below the mean BMD of mature pre-menopausal Caucasian women in the United States. Patients are otherwise in good health based on medical history, a physical examination and a laboratory screening evaluation.\n(§2) Data was collected on a total of 881 patients from two study groups (cohorts), following virtually identical protocol design and procedures, except that one study was conducted in the United States, and the other was conducted in Canada, Mexico, Europe, Israel, South America, Australia and New Zealand. Data from the two groups was then pooled. […] Additionally, all patients received dietary evaluation and instruction on calcium intake."}, "[2]": {"tested_on": "vertebral deformity in osteoporotic post-menopausal women", "settings": "after three years", "from_the_text": "as §1, §2\n(§3) Assessment of vertebral fracture and vertebral deformity (SDI) was based on measurements from lateral spine x-rays, blinded to sequence. Lateral spine x-rays were taken at baseline, one, two and three years. The process of reading the x-rays involved a computerized entry of measurements taken at each of the vertebrae noted on the x-rays, a process known as digitization. […] A computer mouse with cross-hairs is used to enter the data as X,Y coordinates into a commercially available digitization board and computer software program, which computes the distance between landmarks (vertebral heights) in millimeters."}, "[3]": {"tested_on": "vertebral fractures in osteoporotic post-menopausal women", "procedure": "VERTEBRAL FRACTURES—Calculations of prevalent and incident categorical vertebral fractures were performed by comparing each patient's baseline vertebral heights with a reference population (prevalent fracture) and with their follow-up heigiits (incident fractures). Only data from the true baselines were used to determine prevalent fractures. Any vertebral height ratio more than three standard deviations below its corresponding population reference value was defined as a prevalent vertebral fracture. An incident fracture was defined as greater than or equal to a 20% reduction from baseline vertebral height, with an absolute decrease of at least 4 mm in any vertebral height between baseline and follow-up.\nas §1, §2, §3"}}}
{"molecule": "NCCCC(O)(P(=O)(O)O)P(=O)(O)O", "note": "[alendronate, 4-amino-1-hydroxy-butylidene-1,1-bisphosphonate]", "values": [{"measurement": "mean stature lost in patients who sustained at least one vertebral fracture", "setting": "[1]", "value": 5.9, "unit": "mm"}, {"measurement": "SDI mean change from baseline, women with increased deformity", "setting": "[2]", "value": 0.143}, {"measurement": "SDI mean change from baseline, overall", "setting": "[2]; all women", "value": 0.041}, {"measurement": "patients with progression (increase) in vertebral deformity by SDI", "setting": "[2]; p=0.028 by Chi-square test", "value": 33, "unit": "%"}, {"measurement": "number of vertebral fractures per 100 patients", "setting": "[3]; three years", "value": 4.2}, {"measurement": "women with a new vertebral fracture", "setting": "[3]; three years of study, 17 of 526 women, oral 5, 10 or 20/5 mg daily pooled, p=0.034 vs placebo", "value": 3.23, "unit": "%"}, {"measurement": "proportion of patients experiencing two or more fractures among patients with at least one incident vertebral fracture", "setting": "[3]; three years, 3/17", "value": 18, "unit": "%"}, {"measurement": "mild fractures (end-plate deformity fractures) among women who sustained an incident fracture", "setting": "[3]; three years, 6/17", "value": "6/17 (35.3%)"}, {"measurement": "severe fractures (crush or wedge fractures) among women who sustained an incident fracture", "setting": "[3]; three years, 11/17", "value": "11/17 (64.7%)"}, {"measurement": "reduction in vertebral fracture rate per 100 patients compared to placebo", "setting": "[3]; total number of vertebral fractures", "value": "at least 63%"}]}
